Measurements taken from patent US4132846A.
In brackets after ≈: the same amount, converted by molar mass. Read-outs that look alike come from different tables or passages of the source.

Legend:
[1] = system: Pseudomonas aeruginosa BMH 1; assay: MIC, agar dilution method at pH 7.2; format: cell-based; settings: BMH1, read-out: Minimum Inhibitory Concentration
Description: (§1) Anti-bacterial Spectrum (Minimum Inhibitory Concentration, mcg/ml)

Proteus vulgaris 6897 = assay: MIC, agar dilution method at pH 7.2; format: cell-based
Description: as §1

[2] = system: Staphylococcus aureus 209 P; assay: MIC, agar dilution method at pH 7.2; format: cell-based; settings: read-out: Minimum Inhibitory Concentration
Description: as §1

[3] = system: Bacillus subtilis ATCC 6633; assay: MIC, agar dilution method at pH 7.2; format: cell-based; settings: ATCC6633, read-out: Minimum Inhibitory Concentration
Description: as §1

Proteus mirabilis 1287 = assay: MIC, agar dilution method at pH 7.2; format: cell-based; settings: read-out: Minimum Inhibitory Concentration
Description: as §1

[4] = system: Klebsiella pneumoniae No. 8045; assay: MIC, agar dilution method at pH 7.2; format: cell-based; settings: read-out: Minimum Inhibitory Concentration
Description: as §1

Escherichia coli T-2 = assay: MIC, agar dilution method at pH 7.2; format: cell-based; settings: T2, read-out: Minimum Inhibitory Concentration
Description: as §1

[5] = system: Bacillus subtilis No. 10707; assay: MIC, agar dilution method at pH 8.0; format: cell-based
Escherichia coli KY 8327 [6] = assay: MIC, agar dilution method at pH 7.2; format: cell-based; settings: KY8327, Escherichia coli KY 8327 (produces gentamicin adenyltransferase), read-out: Minimum Inhibitory Concentration
Description: as §1
^1 produces gentamicin adenyltransferase

[7] = system: Shigella sonnei ATCC 9290; assay: microbe, parasite or virus in culture; format: cell-based; settings: ATCC9290, agar dilution, pH 8.0, read-out: minimum Inhibitory Concentration
[8] = system: Pseudomonas aeruginosa KY 8511; assay: MIC, agar dilution method at pH 7.2; format: cell-based; settings: KY8511, Pseudomonas aeruginosa KY 8511 (gentamicin acetyltransferase Type I and neomycin-kanamycin phosphotransferase Type I), read-out: Minimum Inhibitory Concentration
Description: ^6 produces gentamicin acetyltransferase Type I and neomycin-kanamyci

[9] = system: Klebsiella pneumoniae ATCC 10031; assay: MIC, agar dilution method at pH 8.0; format: cell-based; settings: ATCC10031, pH 8, read-out: minimum Inhibitory Concentration
Escherichia coli KY 8321 = assay: MIC, agar dilution method at pH 7.2; format: cell-based; settings: KY8321, Escherichia coli KY 8321 (gentamicin adenyltransferase and neomycin-kanamycin phosphotransferase Type II), read-out: Minimum Inhibitory Concentration
Description: ^2 produces gentamicin adenyltransferase and neomycin-kanamycin
phosphotransferase Type II

[10] = system: Pseudomonas aeruginosa KY 8510; assay: MIC, agar dilution method at pH 7.2; format: cell-based; settings: KY8510, Pseudomonas aeruginosa KY 8510 (kanamycin acetyltransferase), read-out: Minimum Inhibitory Concentration
Escherichia coli ATC 26 = assay: MIC, agar dilution method at pH 8.0; format: cell-based; settings: ATC26, read-out: minimum Inhibitory Concentration
[11] = system: Salmonella typhosa ATCC 9992; assay: MIC, agar dilution method at pH 8.0; format: cell-based; settings: Salmonella enterica, pH 8, read-out: minimum Inhibitory Concentration
Escherichia coli KY 8349 = assay: MIC, agar dilution method at pH 7.2; format: cell-based; settings: KY8349, Escherichia coli KY 8349 (neomycin-kanamycin phosphototransferase Type I), read-out: Minimum Inhibitory Concentration
Description: ^4 produces neomycin-kanamycin phosphototransferase Type I

[12] = system: Proteus vulgaris ATCC 6897; assay: microbe, parasite or virus in culture; format: cell-based; settings: ATCC6897, pH 8, read-out: minimum Inhibitory Concentration
Providencia sp. 164 = assay: MIC, agar dilution method at pH 7.2; format: cell-based; settings: Providencia sp. 164 (gentamicin acetyltransferase Type II), read-out: Minimum Inhibitory Concentration
Escherichia coli KY 8348 [13] = assay: MIC, agar dilution method at pH 7.2; format: cell-based; settings: KY8348, Escherichia coli KY 8348 (gentamicin acetyltransferase Type I), read-out: Minimum Inhibitory Concentration
Escherichia coli KY 8327 [14] = assay: MIC, agar dilution method at pH 8.0; format: cell-based; settings: KY8327, Escherichia coli KY 8327 (produces gentamicin adenyltransferase), read-out: minimum Inhibitory Concentration
Description: (§2) The former bacterium inactivates kanamycins and gentamicins by adenylation, and the latter inactivates gentamicins by acetylation.

Escherichia coli KY 8348 [15] = assay: MIC, agar dilution method at pH 8.0; format: cell-based; settings: KY8348, Escherichia coli KY 8348 (produces gentamicin acetyltransferase Type I), read-out: minimum Inhibitory Concentration
Description: as §2

[16] = system: Staphylococcus aureus ATC 6538P; assay: MIC, agar dilution method at pH 8.0; format: cell-based; settings: ATC6538P
[17] = system: Pseudomonas aeruginosa KY 8512; assay: MIC, agar dilution method at pH 7.2; format: cell-based; settings: KY8512, Pseudomonas aeruginosa KY 8512 (neomycin-kanamycin phosphotransferase Type I and II, streptomycin phosphotransferase), read-out: Minimum Inhibitory Concentration
Description: as §1
^7 produces neomycin-kanamycin phosphotransferase Type I and Type II
and streptomycin phosphotransferase

[18] = system: Pseudomonas aeruginosa BMH 1; assay: MIC, agar dilution method at pH 8.0; format: cell-based; settings: BMH1, read-out: minimum Inhibitory Concentration
Sarcina lutea ATCC 9341 = assay: MIC, agar dilution method at pH 7.2; format: cell-based; settings: Micrococcus luteus, ATCC9341, read-out: Minimum Inhibitory Concentration
Description: as §1

Escherichia coli T-5 = assay: MIC, agar dilution method at pH 7.2; format: cell-based; settings: T5, read-out: Minimum Inhibitory Concentration
Description: as §1

[19] = system: Staphylococus aureus Smith; assay: MIC, agar dilution method at pH 7.2; format: cell-based
Description: as §1

Proteus morganii KY 4298 = assay: MIC, agar dilution method at pH 7.2; format: cell-based; settings: Morganella morganii, KY4298, pH 7.2, read-out: Minimum Inhibitory Concentration
Description: as §1

[20] = system: Pseudomonas aeruginosa KY 8516; assay: MIC, agar dilution method at pH 7.2; format: cell-based; settings: KY8516, Pseudomonas aeruginosa KY 8516 (probably kanamycin acetyltransferase), read-out: Minimum Inhibitory Concentration
Proteus rettgeri KY 4288 = assay: MIC, agar dilution method at pH 7.2; format: cell-based; settings: Providencia rettgeri, KY4288, pH 7.2, read-out: Minimum Inhibitory Concentration
[21] = in water and methanol; cited from earlier work
[22] = Proteus vulgaris 6897, agar dilution, pH 7.2, read-out: Minimum Inhibitory Concentration
[23] = Bacillus subtilis, NO.10707, pH 8, read-out: minimum Inhibitory Concentration
[24] = Staphylococcus aureus, pH 8, read-out: minimum Inhibitory Concentration
[25] = Staphylococus aureus Smith, agar dilution, pH 7.2, read-out: Minimum Inhibitory Concentration
[26] = Bacillus subtilis No. 10707, agar dilution, pH 8.0, read-out: minimum Inhibitory Concentration
[27] = Staphylococcus aureus ATC 6538P, agar dilution, pH 8.0, read-out: minimum Inhibitory Concentration

| SMILES | MIC [1] | MIC [2] | MIC [3] | MIC (Proteus mirabilis 1287) | MIC [4] | MIC (Escherichia coli KY 8327 [6]) | MIC [7] | MIC [8] | MIC [9] | MIC (Escherichia coli KY 8321) | MIC [10] | MIC (Escherichia coli ATC 26) | MIC [11] | MIC (Escherichia coli KY 8349) | MIC [12] | MIC (Providencia sp. 164) | MIC (Escherichia coli KY 8348 [13]) | MIC (Escherichia coli KY 8327 [14]) | MIC (Escherichia coli KY 8348 [15]) | MIC [17] | other results |
| --- | --- | --- | --- | --- | --- | --- | --- | --- | --- | --- | --- | --- | --- | --- | --- | --- | --- | --- | --- | --- | --- |
| CNCC1CCC(N)C(OC2C(N)CC(NC(=O)[C@H](O)CN)C(OC3OCC(C)(O)C(NC)C3O)C2O)O1 (stereo partly drawn) [D-form] | 1.56 µg/mL (≈ 2.83 µM) | 0.05 µg/mL (≈ 0.0908 µM) | 0.05 µg/mL (≈ 0.0908 µM) | 3.12 µg/mL (≈ 5.67 µM) | 0.2 µg/mL (≈ 0.363 µM) | 0.2 µg/mL (≈ 0.363 µM) | 0.008 µg/mL (≈ 0.0145 µM) | 3.12 µg/mL (≈ 5.67 µM) | 0.004 µg/mL (≈ 0.00726 µM) | 0.2 µg/mL (≈ 0.363 µM) | 3.12 µg/mL (≈ 5.67 µM) | 0.004 µg/mL (≈ 0.00726 µM) | 0.004 µg/mL (≈ 0.00726 µM) | 0.2 µg/mL (≈ 0.363 µM) | 0.033 µg/mL (≈ 0.0599 µM) | 6.25 µg/mL (≈ 11.4 µM) | 0.2 µg/mL (≈ 0.363 µM) | 0.004 µg/mL (≈ 0.00726 µM) | 0.004 µg/mL (≈ 0.00726 µM) | 1.56 µg/mL (≈ 2.83 µM) | MIC (Proteus vulgaris 6897; [22]): 0.78 µg/mL (≈ 1.42 µM); MIC (Escherichia coli T-2): 0.2 µg/mL (≈ 0.363 µM); MIC [5, 23]: 0.004 µg/mL (≈ 0.00726 µM); MIC [16, 24]: 0.004 µg/mL (≈ 0.00726 µM); MIC [18]: 2.08 µg/mL (≈ 3.78 µM) |
| CNCC1CCC(N)C(OC2C(N)CC(NC(=O)C(O)CN)C(OC3OCC(C)(O)C(NC)C3O)C2O)O1 (racemic) [DL-form] | 1.56 µg/mL (≈ 2.83 µM) | 0.1 µg/mL (≈ 0.182 µM) | 0.1 µg/mL (≈ 0.182 µM) | 3.12 µg/mL (≈ 5.67 µM) | 0.2 µg/mL (≈ 0.363 µM) | 0.4 µg/mL (≈ 0.726 µM) | 0.016 µg/mL (≈ 0.0291 µM) | 3.12 µg/mL (≈ 5.67 µM) | 0.033 µg/mL (≈ 0.0599 µM) | 0.2 µg/mL (≈ 0.363 µM) | 3.12 µg/mL (≈ 5.67 µM) | 0.008 µg/mL (≈ 0.0145 µM) | 0.004 µg/mL (≈ 0.00726 µM) | 0.2 µg/mL (≈ 0.363 µM) | 0.033 µg/mL (≈ 0.0599 µM) | 12.5 µg/mL (≈ 22.7 µM) | 0.2 µg/mL (≈ 0.363 µM) | 0.004 µg/mL (≈ 0.00726 µM) | 0.004 µg/mL (≈ 0.00726 µM) | 0.78 µg/mL (≈ 1.42 µM) | MIC (Proteus vulgaris 6897; Proteus vulgaris, 6897, pH 7.2, read-out: Minimum Inhibitory Concentration): 3.12 µg/mL (≈ 5.67 µM); MIC (Sarcina lutea ATCC 9341): 0.4 µg/mL (≈ 0.726 µM); MIC (Escherichia coli T-5): 0.4 µg/mL (≈ 0.726 µM); MIC [19, 25]: 0.05 µg/mL (≈ 0.0908 µM); MIC (Proteus morganii KY 4298): 0.78 µg/mL (≈ 1.42 µM); MIC (Escherichia coli T-2): 0.4 µg/mL (≈ 0.726 µM); MIC [20]: 3.12 µg/mL (≈ 5.67 µM); MIC [5, 26]: 0.008 µg/mL (≈ 0.0145 µM); MIC (Proteus rettgeri KY 4288): 0.78 µg/mL (≈ 1.42 µM); MIC [16, 27]: 0.065 µg/mL (≈ 0.118 µM); MIC [18]: 1.04 µg/mL (≈ 1.89 µM) |
| CNC[C@@H]1CC[C@@H](N)[C@@H](O[C@H]2[C@H](O)[C@@H](O[C@H]3OC[C@](C)(O)[C@H](NC)[C@H]3O)[C@H](N)C[C@@H]2N)O1 [XK-62-2, reference compound] |  |  |  |  |  |  |  |  |  |  |  |  |  |  |  |  |  |  |  |  | MIC [19, 25]: < 0.05 µg/mL; MIC [5, 26]: 0.004 µg/mL (≈ 0.00863 µM); solubility [21]: freely soluble; MIC [16, 27]: 0.008 µg/mL (≈ 0.0173 µM) |
| CNCC1CCC(N)C(OC2C(N)CC(NC(=O)[C@@H](O)CN)C(OC3OCC(C)(O)C(NC)C3O)C2O)O1 (stereo partly drawn) [L-form] | 1.56 µg/mL (≈ 2.83 µM) | 0.05 µg/mL (≈ 0.0908 µM) | 0.05 µg/mL (≈ 0.0908 µM) | 3.12 µg/mL (≈ 5.67 µM) | 0.2 µg/mL (≈ 0.363 µM) | 0.2 µg/mL (≈ 0.363 µM) | 0.008 µg/mL (≈ 0.0145 µM) | 3.12 µg/mL (≈ 5.67 µM) | 0.004 µg/mL (≈ 0.00726 µM) | 0.4 µg/mL (≈ 0.726 µM) | 3.12 µg/mL (≈ 5.67 µM) | 0.004 µg/mL (≈ 0.00726 µM) | 0.004 µg/mL (≈ 0.00726 µM) | 0.2 µg/mL (≈ 0.363 µM) | 0.033 µg/mL (≈ 0.0599 µM) | 6.25 µg/mL (≈ 11.4 µM) | 0.2 µg/mL (≈ 0.363 µM) | 0.004 µg/mL (≈ 0.00726 µM) | 0.004 µg/mL (≈ 0.00726 µM) | 0.78 µg/mL (≈ 1.42 µM) | MIC (Proteus vulgaris 6897; [22]): 1.56 µg/mL (≈ 2.83 µM); MIC [5, 23]: 0.004 µg/mL (≈ 0.00726 µM); MIC [16, 24]: 0.004 µg/mL (≈ 0.00726 µM); MIC [18]: 1.04 µg/mL (≈ 1.89 µM) |
| NC[C@H]1O[C@H](O[C@H]2[C@H](O)[C@@H](O[C@H]3O[C@H](CO)[C@@H](O)[C@H](N)[C@H]3O)[C@H](N)C[C@@H]2N)[C@H](O)[C@@H](O)[C@@H]1O [Kanamycin A, kanamycin A, reference compound] |  |  |  |  |  |  |  |  |  |  |  |  | 0.08 µg/mL (≈ 0.165 µM) |  |  |  |  |  |  |  | MIC ([19]; pH 7.2, read-out: Minimum Inhibitory Concentration): 0.2 µg/mL (≈ 0.413 µM) |
